Data taken from paper PMC9578392, “Safety, Tolerability, and Pharmacokinetics of the Novel Antiviral Agent Ensitrelvir Fumaric Acid, a SARS-CoV-2 3CL Protease Inhibitor, in Healthy Adults” (Antimicrobial Agents and Chemotherapy, 2022).

Assay: Treatment-emergent adverse events, single dose (part 1)
Assay type: in vivo, human
Procedure: In part 1, Japanese participants were randomized to receive placebo or single dose of ensitrelvir (20, 70, 250, 500, 1,000, and 2,000 mg given to cohorts A, B, C, D, E, and J, respectively), suspended in 0.5% methylcellulose, in the fasted state. Additionally, in cohort C, the effect of food on the pharmacokinetics of ensitrelvir was investigated in a 2-group, 2-period crossover design by administering placebo or ensitrelvir (250 mg) in the fasted or fed (high-fat/high-calorie) state. In part 2, Japanese participants were randomized to receive placebo or multiple doses of ensitrelvir, suspended in 0.5% methylcellulose. The multiple-dose regimens were as follows: once-daily doses of ensitrelvir 375 mg on day 1 and 125 mg on days 2 to 5 (cohort F), or 750 mg on day 1 and 250 mg on days 2 to 6 (cohort G) in the fasted state. White participants were randomized to receive placebo or multiple doses of ensitrelvir. The multiple-dose regimens were as follows: once-daily doses of ensitrelvir 375 mg on day 1 and 125 mg on days 2 to 5 (cohort H). Each cohort included 11 participants. In cohort G, the effect of ensitrelvir on the pharmacokinetics of midazolam (syrup) was evaluated in an open label self-controlled crossover design. Midazolam 2 mg alone was administered 2 days prior to initiating ensitrelvir administration (on day −2) and midazolam was coadministered on day 6 with placebo or ensitrelvir in the fasted state to participants following once-daily doses for 5 days of placebo (days 1 to 5) or ensitrelvir (750 mg on day 1 and 250 mg on days 2–5).
The nature, frequency, and severity of TEAEs were evaluated and recorded.

[1] = Cohort A 20 mg single dose, n = 6
[2] = Cohort B 70 mg single dose, n = 6
[3] = Cohort C (fasted) 250 mg single dose, n = 8
[4] = Cohort D 500 mg single dose, n = 6
[5] = Cohort E 1,000 mg single dose, n = 6
[6] = Cohort J 2,000 mg single dose, n = 6

## Cn1cnc(Cn2c(=O)[nH]/c(=N\c3cc4cn(C)nc4cc3Cl)n(Cc3cc(F)c(F)cc3F)c2=O)n1 [Ensitrelvir, ensitrelvir fumaric acid]
[1]
  Abdominal pain, Events: 0
  Abdominal pain, n (%): 0
  Chills, Events: 0
  Chills, n (%): 0
  Feces soft, Events: 0
  Feces soft, n (%): 0
  Gastrointestinal disorders, Events: 0
  Gastrointestinal disorders, n (%): 0
  General disorders and administration site conditions, Events: 0
  General disorders and administration site conditions, n (%): 0
  Headache, Events: 0
  Headache, n (%): 0
  High density lipoprotein cholesterol decreased, Events: 0
  High density lipoprotein cholesterol decreased, n (%): 0
  Investigations, Events: 0
  Investigations, n (%): 0
  Nausea, Events: 0
  Nausea, n (%): 0
  Nervous system disorders, Events: 0
  Nervous system disorders, n (%): 0
  Participants with any TEAE, Events: 0
  Participants with any TEAE, n (%): 0
  Vomiting, Events: 0
  Vomiting, n (%): 0
[2]
  Abdominal pain, Events: 1
  Abdominal pain, n (%): 1 (16.7)
  Chills, Events: 0
  Chills, n (%): 0
  Feces soft, Events: 0
  Feces soft, n (%): 0
  Gastrointestinal disorders, Events: 1
  Gastrointestinal disorders, n (%): 1 (16.7)
  General disorders and administration site conditions, Events: 0
  General disorders and administration site conditions, n (%): 0
  Headache, Events: 1
  Headache, n (%): 1 (16.7)
  High density lipoprotein cholesterol decreased, Events: 0
  High density lipoprotein cholesterol decreased, n (%): 0
  Investigations, Events: 0
  Investigations, n (%): 0
  Nausea, Events: 0
  Nausea, n (%): 0
  Nervous system disorders, Events: 1
  Nervous system disorders, n (%): 1 (16.7)
  Participants with any TEAE, Events: 2
  Participants with any TEAE, n (%): 2 (33.3)
  Vomiting, Events: 0
  Vomiting, n (%): 0
[3]
  Abdominal pain, Events: 0
  Abdominal pain, n (%): 0
  Chills, Events: 0
  Chills, n (%): 0
  Feces soft, Events: 0
  Feces soft, n (%): 0
  Gastrointestinal disorders, Events: 0
  Gastrointestinal disorders, n (%): 0
  General disorders and administration site conditions, Events: 0
  General disorders and administration site conditions, n (%): 0
  Headache, Events: 0
  Headache, n (%): 0
  High density lipoprotein cholesterol decreased, Events: 0
  High density lipoprotein cholesterol decreased, n (%): 0
  Investigations, Events: 0
  Investigations, n (%): 0
  Nausea, Events: 0
  Nausea, n (%): 0
  Nervous system disorders, Events: 0
  Nervous system disorders, n (%): 0
  Participants with any TEAE, Events: 0
  Participants with any TEAE, n (%): 0
  Vomiting, Events: 0
  Vomiting, n (%): 0
[4]
  Abdominal pain, Events: 0
  Abdominal pain, n (%): 0
  Chills, Events: 0
  Chills, n (%): 0
  Feces soft, Events: 0
  Feces soft, n (%): 0
  Gastrointestinal disorders, Events: 0
  Gastrointestinal disorders, n (%): 0
  General disorders and administration site conditions, Events: 0
  General disorders and administration site conditions, n (%): 0
  Headache, Events: 0
  Headache, n (%): 0
  High density lipoprotein cholesterol decreased, Events: 0
  High density lipoprotein cholesterol decreased, n (%): 0
  Investigations, Events: 0
  Investigations, n (%): 0
  Nausea, Events: 0
  Nausea, n (%): 0
  Nervous system disorders, Events: 0
  Nervous system disorders, n (%): 0
  Participants with any TEAE, Events: 0
  Participants with any TEAE, n (%): 0
  Vomiting, Events: 0
  Vomiting, n (%): 0
[5]
  Abdominal pain, Events: 0
  Abdominal pain, n (%): 0
  Chills, Events: 0
  Chills, n (%): 0
  Feces soft, Events: 0
  Feces soft, n (%): 0
  Gastrointestinal disorders, Events: 0
  Gastrointestinal disorders, n (%): 0
  General disorders and administration site conditions, Events: 0
  General disorders and administration site conditions, n (%): 0
  Headache, Events: 0
  Headache, n (%): 0
  High density lipoprotein cholesterol decreased, Events: 6
  High density lipoprotein cholesterol decreased, n (%): 6 (100)
  Investigations, Events: 6
  Investigations, n (%): 6 (100)
  Nausea, Events: 0
  Nausea, n (%): 0
  Nervous system disorders, Events: 0
  Nervous system disorders, n (%): 0
  Participants with any TEAE, Events: 6
  Participants with any TEAE, n (%): 6 (100)
  Vomiting, Events: 0
  Vomiting, n (%): 0
Cohort E 1,000 mg single dose, n = 6, listed as ensitrelvir
  High density lipoprotein cholesterol decreased, n (%): 6/6
[6]
  Abdominal pain, Events: 0
  Abdominal pain, n (%): 0
  Chills, Events: 1
  Chills, n (%): 1 (16.7)
  Feces soft, Events: 1
  Feces soft, n (%): 1 (16.7)
  Gastrointestinal disorders, Events: 3
  Gastrointestinal disorders, n (%): 1 (16.7)
  General disorders and administration site conditions, Events: 1
  General disorders and administration site conditions, n (%): 1 (16.7)
  Headache, Events: 1
  Headache, n (%): 1 (16.7)
  High density lipoprotein cholesterol decreased, Events: 6
  High density lipoprotein cholesterol decreased, n (%): 6 (100)
  Investigations, Events: 6
  Investigations, n (%): 6 (100)
  Nausea, Events: 1
  Nausea, n (%): 1 (16.7)
  Nervous system disorders, Events: 1
  Nervous system disorders, n (%): 1 (16.7)
  Participants with any TEAE, Events: 11
  Participants with any TEAE, n (%): 6 (100)
  Vomiting, Events: 1
  Vomiting, n (%): 1 (16.7)
Cohort J 2,000 mg single dose, n = 6, listed as ensitrelvir
  High density lipoprotein cholesterol decreased, n (%): 6/6
Single and multiple doses, all doses tested, healthy participants
  overall tolerability: well tolerated across all doses tested
Single dose 20–2,000 mg, cohorts A–E and J
  severity of adverse events: a All adverse events were mild.
